Values of other authors as cited in US8455667B2, “Duloxetine compositions in the form of a powder for suspension in a liquid” (priority 2005, dated 2013).

Columns and labels:
[1] = system: dopaminergic receptors; conditions: in vitro
[2] = system: adrenergic receptors; conditions: in vitro
[3] = system: cholinergic receptors; conditions: in vitro
[4] = system: histaminergic receptors; conditions: in vitro
[5] = system: monoamine oxidase (MAO)
[6] = in vivo

SMILES: CNCC[C@H](Oc1cccc2ccccc12)c1cccs1 [Duloxetine, (S)-N-methyl-3-(1-naphthyloxy)-3-(2-thienyl) propan-1-amine]
- affinity for dopaminergic receptors [1]: no significant affinity
- affinity for adrenergic receptors [2]: no significant affinity
- affinity for cholinergic receptors [3]: no significant affinity
- affinity for histaminergic receptors [4]: no significant affinity
- inhibition of monoamine oxidase (MAO) [5]: does not inhibit
- dosage hydrolyzed to 1-naphthol (pH 1.0, within one hour): 50%
- dosage degraded to 1-Naphthol (pH 2.0, in one hour): 10%
- time for 10% degradation (pH 4.0): up to 63 hours
- mean plasma elimination half-life [6]: 12.1 h
